Patent publication US8471005B2 (Cephalon, Inc., priority 2008, dated 2013)
Like-named read-outs stand apart in the source and are kept apart here.

Columns and labels:
[1] = target: T1, ALK (Homo sapiens, UniProt Q9UM73); assay: ALK Kinase Assay (ELISA/TRF, PLC-γ substrate); type: biochemical; conditions: read-out: ALK Potency
T1 construct: host or cells: baculovirus expression system
Method: Briefly, each 96-well plate was coated with […] of 10 μg/mL substrate (phospholipase C-γ) in Tris-buffered saline (TBS). […] The reaction was initiated by adding enzyme (30 ng/ml ALK) and was allowed to proceed at 37° C. for 15 minutes. Detection of the phosphorylated product was performed by adding 100 μl/well of Eu—N1 labeled PT66 antibody (Perkin Elmer # AD0041).
Data analysis was performed using ActivityBase (IDBS, Guilford, UK). IC50 values were calculated by plotting percent inhibition versus log10 of the concentration of compound and fitting to the nonlinear regression sigmoidal dose-response (variable slope) equation in XLFit (IDBS, Guilford, UK).

[2] = target: T2, JAK2 (Homo sapiens, UniProt O60674); assay: Recombinant Human JAK2 Kinase Assay (TRF); type: biochemical; conditions: read-out: JAK2 Potency
T2 construct: host or cells: baculovirus expression system
T2 sequence (O60674 whole entry): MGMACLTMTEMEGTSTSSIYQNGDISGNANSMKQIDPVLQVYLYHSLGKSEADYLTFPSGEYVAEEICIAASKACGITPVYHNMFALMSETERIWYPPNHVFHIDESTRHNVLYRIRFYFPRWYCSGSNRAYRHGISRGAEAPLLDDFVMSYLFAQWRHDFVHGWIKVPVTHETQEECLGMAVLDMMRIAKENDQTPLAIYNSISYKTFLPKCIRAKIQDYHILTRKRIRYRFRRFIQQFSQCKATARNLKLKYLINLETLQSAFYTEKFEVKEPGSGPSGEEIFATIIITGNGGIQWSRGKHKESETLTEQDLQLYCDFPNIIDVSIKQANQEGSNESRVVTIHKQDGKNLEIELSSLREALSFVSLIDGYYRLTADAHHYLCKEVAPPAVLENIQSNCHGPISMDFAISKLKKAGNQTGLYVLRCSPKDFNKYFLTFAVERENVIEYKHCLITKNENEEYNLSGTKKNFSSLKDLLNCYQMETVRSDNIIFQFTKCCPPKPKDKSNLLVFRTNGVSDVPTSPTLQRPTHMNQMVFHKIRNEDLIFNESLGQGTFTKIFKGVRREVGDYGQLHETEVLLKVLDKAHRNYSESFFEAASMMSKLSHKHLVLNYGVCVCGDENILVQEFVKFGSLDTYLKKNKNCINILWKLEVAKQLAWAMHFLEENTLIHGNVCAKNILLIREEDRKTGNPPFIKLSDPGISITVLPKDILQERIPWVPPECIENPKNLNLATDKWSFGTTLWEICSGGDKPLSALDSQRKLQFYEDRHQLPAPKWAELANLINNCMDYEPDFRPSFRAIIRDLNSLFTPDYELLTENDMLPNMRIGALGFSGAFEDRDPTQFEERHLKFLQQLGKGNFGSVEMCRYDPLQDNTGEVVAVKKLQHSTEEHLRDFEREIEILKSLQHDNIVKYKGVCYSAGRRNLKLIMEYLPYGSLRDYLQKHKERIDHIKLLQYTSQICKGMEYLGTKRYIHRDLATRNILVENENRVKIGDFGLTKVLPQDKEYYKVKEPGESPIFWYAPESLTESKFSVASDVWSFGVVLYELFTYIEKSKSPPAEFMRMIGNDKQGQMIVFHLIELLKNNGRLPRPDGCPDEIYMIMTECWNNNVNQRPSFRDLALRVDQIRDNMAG
Method: Compounds were tested for their ability to inhibit the kinase activity of baculovirus-expressed JAK2 using the TRF detection system. […] The plates were coated first with 100 μL/well of 10 μg/mL Neutravidin (Pierce #31000, Rockford, Ill.) in TBS at 37° C. for 2 hours, followed by 100 μL/well of 1 μg/mL 15-mer peptide substrate (biotinyl-amino-hexanoyl-[…]-amide, Infinity Biotech Research and Resource, Aston, Pa.) at 37° C. for another hour. The JAK2 assay mixture (total volume=100 μL/well) consisting of 20 mM HEPES (pH 7.2), 0.2 μM ATP, 1 mM MnCl2, 0.1% BSA, and test compound (diluted in DMSO; 2.5% DMSO final in assay) was then added to the assay plate. Enzyme (15 ng/ml JAK2) was added and the reaction was allowed to proceed at room temperature for 20 minutes. Detection of the phosphorylated product was performed by adding 100 μL/well of Eu—N1 labeled PY100 antibody (PerkinElmer Life Sciences #AD0041, Boston, Mass.).

[3] = ALK kinase inhibition, 1 μM ATP
[4] = JAK2 kinase inhibition, 0.2 μM ATP

T1 sequence (Q9UM73 19-1620): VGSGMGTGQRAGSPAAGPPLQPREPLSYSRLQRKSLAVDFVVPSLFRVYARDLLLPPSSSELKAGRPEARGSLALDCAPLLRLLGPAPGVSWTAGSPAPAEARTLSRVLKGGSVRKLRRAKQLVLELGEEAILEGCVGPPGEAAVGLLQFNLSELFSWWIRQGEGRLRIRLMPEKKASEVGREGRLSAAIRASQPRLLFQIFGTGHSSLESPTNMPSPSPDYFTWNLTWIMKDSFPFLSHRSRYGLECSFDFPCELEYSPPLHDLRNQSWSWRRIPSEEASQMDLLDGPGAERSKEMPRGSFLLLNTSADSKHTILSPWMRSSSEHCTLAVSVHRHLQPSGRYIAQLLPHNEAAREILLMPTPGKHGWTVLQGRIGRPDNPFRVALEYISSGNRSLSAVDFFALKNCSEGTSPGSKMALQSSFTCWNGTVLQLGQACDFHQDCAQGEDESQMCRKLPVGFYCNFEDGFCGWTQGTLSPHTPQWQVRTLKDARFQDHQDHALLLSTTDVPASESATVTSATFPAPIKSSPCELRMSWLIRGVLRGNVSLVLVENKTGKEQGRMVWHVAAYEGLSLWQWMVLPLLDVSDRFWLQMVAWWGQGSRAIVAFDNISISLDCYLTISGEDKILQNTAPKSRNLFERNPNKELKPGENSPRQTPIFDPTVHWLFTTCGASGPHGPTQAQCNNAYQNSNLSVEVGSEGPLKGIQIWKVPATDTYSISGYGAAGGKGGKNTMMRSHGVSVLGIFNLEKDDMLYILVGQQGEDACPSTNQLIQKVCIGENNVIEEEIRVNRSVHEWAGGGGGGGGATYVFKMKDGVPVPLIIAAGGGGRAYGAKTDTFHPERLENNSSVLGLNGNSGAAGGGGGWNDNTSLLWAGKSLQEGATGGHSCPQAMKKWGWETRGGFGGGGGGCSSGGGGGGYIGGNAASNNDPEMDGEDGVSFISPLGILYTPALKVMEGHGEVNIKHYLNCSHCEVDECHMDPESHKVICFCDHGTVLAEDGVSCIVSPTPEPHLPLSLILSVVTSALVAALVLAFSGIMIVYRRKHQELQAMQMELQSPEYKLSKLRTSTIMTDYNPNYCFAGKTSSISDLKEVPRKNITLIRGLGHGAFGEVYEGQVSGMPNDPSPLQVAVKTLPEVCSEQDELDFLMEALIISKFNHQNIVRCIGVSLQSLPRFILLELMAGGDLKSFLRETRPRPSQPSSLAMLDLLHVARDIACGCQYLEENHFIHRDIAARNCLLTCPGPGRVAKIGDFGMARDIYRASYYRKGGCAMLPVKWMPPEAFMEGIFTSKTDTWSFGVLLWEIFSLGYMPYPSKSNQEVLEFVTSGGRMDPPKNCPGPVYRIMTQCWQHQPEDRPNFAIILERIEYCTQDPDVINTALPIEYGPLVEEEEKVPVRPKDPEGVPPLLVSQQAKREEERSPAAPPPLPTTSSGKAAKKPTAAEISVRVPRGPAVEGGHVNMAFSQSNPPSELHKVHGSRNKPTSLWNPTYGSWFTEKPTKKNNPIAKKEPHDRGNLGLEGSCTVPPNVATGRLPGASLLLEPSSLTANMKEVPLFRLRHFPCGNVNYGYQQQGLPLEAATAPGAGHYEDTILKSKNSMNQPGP

| IC50 [1, 3] [nM] | IC50 [2, 4] [nM] | IC50 ([1]; ALK Kinase Inhibition) [nM] | IC50 ([2]; JAK2 Kinase Inhibition) [nM] | Compound |
| --- | --- | --- | --- | --- |
| 100 to 1000 | < 100 | – | – | CN1CCN(c2ccc(Nc3ncc4ccc(-c5cccc(CNCCS(C)(=O)=O)c5)n4n3)cc2)CC1 [Example 1162, (7-{3-[(2-Methanesulfonyl-ethylamino)-methyl]-phenyl}-pyrrolo[2,1-f][1,2,4]triazin-2-yl)-[4-(4-methyl-piperazin-1-yl)-phenyl]-amine] |
| – | – | < 100 | < 100 | COc1ccccc1-c1ccc2cnc(Nc3ccc(CN4CCCC4)cc3)nn12 [Example 1430, [7-(2-Methoxy-phenyl)-pyrrolo[2,1-f][1,2,4]triazin-2-yl]-(4-pyrrolidin-1-ylmethyl-phenyl)-amine] |
| – | – | > 10000 | 1000 to 10000 | CN1CCN(c2ccc(Nc3ncc4ccc(-c5ccccc5NC(=O)C(C)(C)C)n4n3)cc2)CC1 [Example 403, 2,2-Dimethyl-N-(2-{2-[4-(4-methyl-piperazin-1-yl)-phenylamino]-pyrrolo[2,1-f][1,2,4]triazin-7-yl}-phenyl)-propionamide] |
| 1000 to 10000 | < 100 | – | – | COc1ccc(-c2ccc3cnc(Nc4ccc(C5C(=O)N(C)CCN5C)cc4)nn23)cn1 (stereo not shown) [Example 1072, 3-{4-[7-(6-Methoxy-pyridin-3-yl)-pyrrolo[2,1-f][1,2,4]triazin-2-ylamino]-phenyl}-1,4-dimethyl-piperazin-2-one] |
| < 100 | 100 to 1000 | – | – | COc1cc(C2CCN(C(=O)C(C)(C)N)CC2)ccc1Nc1ncc2ccc(-c3ccccc3OC)n2n1 [Example 821, 2-Amino-1-(4-{3-methoxy-4-[7-(2-methoxy-phenyl)-pyrrolo[2,1-f][1,2,4]triazin-2-ylamino]-phenyl}-piperidin-1-yl)-2-methyl-propan-1-one] |
| – | 100 to 1000 | – | – | COc1cc([C@@]2(O)CCN(CC(N)=O)C[C@@H]2O)ccc1Nc1ncc2ccc(-c3ccccc3N(C)S(C)(=O)=O)n2n1 (racemic) [Example 844, (±)-2-[(3S,4S)-3,4-Dihydroxy-4-(4-{7-[2-(methanesulfonyl-methyl-amino)-phenyl]-pyrrolo[2,1-f][1,2,4]triazin-2-ylamino}-3-methoxy-phenyl)-piperidin-1-yl]-acetamide] |
| – | – | 100 to 1000 | < 100 | CN1CCC(c2ccc(Nc3ncc4ccc(-c5ccccc5OCC(N)=O)n4n3)cc2)CC1 [Example 1409, 2-(2-{2-[4-(1-Methyl-piperidin-4-yl)-phenylamino]-pyrrolo[2,1-f][1,2,4]triazin-7-yl}-phenoxy)-acetamide] |
| < 100 | < 100 | – | – | CN1CCC(c2ccc(Nc3ncc4ccc(-c5ccc(S(C)(=O)=O)cc5)n4n3)cc2)CC1 [Example 1119, [7-(4-Methanesulfonyl-phenyl)-pyrrolo[2,1-f][1,2,4]triazin-2-yl]-[4-(1-methyl-piperidin-4-yl)-phenyl]-amine] |
| 100 to 1000 | < 100 | – | – | CS(=O)(=O)Nc1cccc(-c2ccc3cnc(Nc4ccc(C5CCN(CC(N)=O)CC5)cc4)nn23)c1 [Example 956, 2-(4-{4-[7-(3-Methanesulfonylamino-phenyl)-pyrrolo[2,1-f][1,2,4]triazin-2-ylamino]-phenyl}-piperidin-1-yl)-acetamide] |
| < 100 | < 100 | – | – | CN1CCC(c2ccc(Nc3ncc4ccc(-c5cccc(S(=O)(=O)NC6CC6)c5)n4n3)cc2)CC1 [Example 906, N-Cyclopropyl-3-{2-[4-(1-methyl-piperidin-4-yl)-phenylamino]-pyrrolo[2,1-f][1,2,4]triazin-7-yl}-benzenesulfonamide] |
| 100 to 1000 | 1000 to 10000 | – | – | COc1ccccc1-c1ccc2cnc(Nc3cccc(C(=O)N4CCN(CCO)CC4)c3OC)nn12 [Example 1233, [4-(2-Hydroxy-ethyl)-piperazin-1-yl]-{2-methoxy-3-[7-(2-methoxy-phenyl)-pyrrolo[2,1-f][1,2,4]triazin-2-ylamino]-phenyl}-methanone] |
| 1000 to 10000 | < 100 | – | – | CCS(=O)(=O)c1cccc(-c2ccc3cnc(Nc4ccc5ncn(C)c5c4)nn23)c1 [Example 1312, [7-(3-Ethanesulfonyl-phenyl)-pyrrolo[2,1-f][1,2,4]triazin-2-yl]-(3-methyl-3H-benzimidazol-5-yl)-amine] |
| – | < 100 | – | – | COc1cc([C@@H]2CCN(CCO)C[C@H]2O)ccc1Nc1ncc2ccc(-c3ccccc3OC)n2n1 (racemic) [Example 856, (±)-(3S,4S)-1-(2-Hydroxy-ethyl)-4-{3-methoxy-4-[7-(2-methoxy-phenyl)-pyrrolo[2,1-f][1,2,4]triazin-2-ylamino]-phenyl}-piperidin-3-ol] |
| – | 100 to 1000 | – | – | COc1cc([C@@H]2CCN(CC(N)=O)C[C@@H]2O)ccc1Nc1ncc2ccc(-c3ccccc3OC)n2n1 (racemic) [Example 839, (±)-2-43R,4S)-3-Hydroxy-4-{3-methoxy-4-[7-(2-methoxy-phenyl)-pyrrolo[2,1-f][1,2,4]triazin-2-ylamino]-phenyl}-piperidin-1-yl)-acetamide] |
| – | < 100 | – | – | COc1cc([C@@]2(O)CCNC[C@@H]2O)ccc1Nc1ncc2ccc(-c3ccccc3OC)n2n1 (racemic) [Example 832, (±)-(3S,4S)-4-{3-Methoxy-4-[7-(2-methoxy-phenyl)-pyrrolo[2,1-f][1,2,4]triazin-2-ylamino]-phenyl}-piperidine-3,4-diol] |
| – | 100 to 1000 | – | – | COc1cc([C@@]2(O)CCN(C(=O)OC(C)(C)C)C[C@@H]2O)ccc1Nc1ncc2ccc(-c3ccccc3OC)n2n1 (racemic) [Example 831, (±)-(3S,4S)-3,4-Dihydroxy-4-{3-methoxy-4-[7-(2-methoxy-phenyl)-pyrrolo[2,1-f][1,2,4]triazin-2-ylamino]-phenyl}-piperidine-1-carboxylic acid tert-butyl ester] |
| – | < 100 | – | – | COc1cc([C@@]2(O)CCN(C)C[C@@H]2O)ccc1Nc1ncc2ccc(-c3ccccc3OC)n2n1 (racemic) [Example 829, (±)-(3S,4S)-4-{3-Methoxy-4-[7-(2-methoxy-phenyl)-pyrrolo[2,1-f][1,2,4]triazin-2-ylamino]-phenyl}-1-methyl-piperidine-3,4-diol] |
| – | 100 to 1000 | – | – | COc1cc([C@@H]2CCNC[C@H]2O)ccc1Nc1ncc2ccc(-c3ccccc3OC)n2n1 (racemic) [Example 855, (±)-(3S,4S)-4-{3-Methoxy-4-[7-(2-methoxy-phenyl)-pyrrolo[2,1-f][1,2,4]triazin-2-ylamino]-phenyl}-piperidin-3-ol] |
| – | 1000 to 10000 | – | – | COc1cc([C@@]2(O)CCNC[C@@H]2O)ccc1Nc1ncc2ccc(-c3ccccc3N(C)S(C)(=O)=O)n2n1 (racemic) [Example 840, (±)-N-(2-{2-[4-((3S,4S)-3,4-Dihydroxy-piperidin-4-yl)-2-methoxy-phenylamino]-pyrrolo[2,1-f][1,2,4]triazin-7-yl}-phenyl)-N-methyl-methanesulfonamide] |
| – | – | – | < 100 | COc1ccc(Cl)cc1-c1ccc2cnc(Nc3ccc(C(C)C)c(NC(C)=O)c3)nn12 [Example 302, N-{5-[7-(5-Chloro-2-methoxy-phenyl)-pyrrolo[2,1-f][1,2,4]triazin-2-ylamino]-2-isopropyl-phenyl}-acetamide] |
| – | < 100 | – | – | COc1cc(C2CCN(C)CC2O)ccc1Nc1ncc2ccc(-c3ccccc3OC)n2n1 (racemic) [Example 830, (±)-4-{3-Methoxy-4-[7-(2-methoxy-phenyl)-pyrrolo[2,1-f][1,2,4]triazin-2-ylamino]-phenyl}-1-methyl-piperidin-3-ol] |
| – | < 100 | – | – | COc1cc([C@@H]2CCN(CCO)C[C@@H]2O)ccc1Nc1ncc2ccc(-c3ccccc3OC)n2n1 (racemic) [Example 848, (±)-(3R,4S)-1-(2-Hydroxy-ethyl)-4-{3-methoxy-4-[7-(2-methoxy-phenyl)-pyrrolo[2,1-f][1,2,4]triazin-2-ylamino]-phenyl}-piperidin-3-ol] |
| – | 100 to 1000 | – | – | CN1CCN(c2ccc(Nc3ncc4cc(-c5cccnc5)cn4n3)cc2)CC1 [Example 1157] |
| – | 100 to 1000 | – | – | COc1cc([C@@H]2CCNC[C@@H]2O)ccc1Nc1ncc2ccc(-c3ccccc3OC)n2n1 (racemic) [Example 835, (±)-(3R,4S)-4-{3-Methoxy-4-[7-(2-methoxy-phenyl)-pyrrolo[2,1-f][1,2,4]triazin-2-ylamino]-phenyl}-piperidin-3-ol] |
| – | < 100 | – | – | COc1cc([C@@]2(O)CCN(CC(N)=O)C[C@@H]2O)ccc1Nc1ncc2ccc(-c3ccccc3OC)n2n1 (racemic) [Example 849, (±)-2-43S,4S)-3,4-Dihydroxy-4-{3-methoxy-4-[7-(2-methoxy-phenyl)-pyrrolo[2,1-f][1,2,4]triazin-2-ylamino]-phenyl}-piperidin-1-yl)-acetamide] |
| – | – | 100 to 1000 | – | COc1ccc(-c2ccc3cnc(Nc4ccc(N5CCN(C)CC5)cc4)nn23)cn1 [Example 81, [7-(6-Methoxy-pyridin-3-yl)-pyrrolo[2,1-f][1,2,4]triazin-2-yl]-[4-(4-methyl-piperazin-1-yl)-phenyl]-amine] |
